Experimental data reported in patent US20250145642A1, “BICYCLIC HETEROARENES AND METHODS OF THEIR USE” (Kineta, Inc., priority 2021, published 2025).

Target: full-length human PIKFYVE (N-terminal GST-fusion) (Homo sapiens (Human), UniProt Q9Y2I7, L932S/Q1183K/Q995L/S1033A/S696N/T998S)
Assay: PIKfyve biochemical assay (ADP-Glo Kinase assay, Carna Biosciences)
Conditions: ADP-Glo, full-length human GST-PIKFYVE, 10 μM to 3 nM; read-out: hPIKfyve IC50
From the text: (§1) PIKfyve Biochemical Assay. The biochemical PIKfyve inhibition assays were run by Carna Biosciences according to proprietary methodology based on the Promega ADP-Glo™ Kinase assay. A full-length human PIKFYVE [1-2098(end) amino acids and S696N, L932S, Q995L, T998S, S1033A and Q1183K of the protein having the sequence set forth in NCBI Reference Sequence No. NP_055855.2] was expressed as N-terminal GST-fusion protein (265 kDa) using baculovirus expression system. GST-PIKFYVE was purified by using glutathione sepharose chromatography and used in an ADP-Glo™ Kinase assay (Promega). Reactions were set up by adding the test compound solution, substrate solution, ATP solution and kinase solution, each at 4× final concentrations. Reactions were prepared with assay buffer (50 mM MOPS, 1 mM DTT, pH7.2), mixed, and incubated in black 384 well polystyrene plates for 1 hour at room temperature. ADP-Glo™ reagent was then added for 40 minutes, followed by kinase detection reagent for an additional 40 minutes. The kinase activity was evaluated by detecting relative light units on a luminescence plate reader. Samples were run in duplicate from 10 μM to 3 nM. […] IC50 values were calculated from concentration vs % inhibition curves by fitting to a four-parameter logistic curve.
as §1, with “The” for “PIKfyve Biochemical Assay. The”, “accession number” for “the protein having the sequence set forth in NCBI Reference Sequence No.”, “curve. […]” for “curve.”

Sequence of full-length human PIKFYVE (N-terminal GST-fusion) (Q9Y2I7 whole entry S696N/L932S/Q995L/T998S/S1033A/Q1183K, the tested form may be a part): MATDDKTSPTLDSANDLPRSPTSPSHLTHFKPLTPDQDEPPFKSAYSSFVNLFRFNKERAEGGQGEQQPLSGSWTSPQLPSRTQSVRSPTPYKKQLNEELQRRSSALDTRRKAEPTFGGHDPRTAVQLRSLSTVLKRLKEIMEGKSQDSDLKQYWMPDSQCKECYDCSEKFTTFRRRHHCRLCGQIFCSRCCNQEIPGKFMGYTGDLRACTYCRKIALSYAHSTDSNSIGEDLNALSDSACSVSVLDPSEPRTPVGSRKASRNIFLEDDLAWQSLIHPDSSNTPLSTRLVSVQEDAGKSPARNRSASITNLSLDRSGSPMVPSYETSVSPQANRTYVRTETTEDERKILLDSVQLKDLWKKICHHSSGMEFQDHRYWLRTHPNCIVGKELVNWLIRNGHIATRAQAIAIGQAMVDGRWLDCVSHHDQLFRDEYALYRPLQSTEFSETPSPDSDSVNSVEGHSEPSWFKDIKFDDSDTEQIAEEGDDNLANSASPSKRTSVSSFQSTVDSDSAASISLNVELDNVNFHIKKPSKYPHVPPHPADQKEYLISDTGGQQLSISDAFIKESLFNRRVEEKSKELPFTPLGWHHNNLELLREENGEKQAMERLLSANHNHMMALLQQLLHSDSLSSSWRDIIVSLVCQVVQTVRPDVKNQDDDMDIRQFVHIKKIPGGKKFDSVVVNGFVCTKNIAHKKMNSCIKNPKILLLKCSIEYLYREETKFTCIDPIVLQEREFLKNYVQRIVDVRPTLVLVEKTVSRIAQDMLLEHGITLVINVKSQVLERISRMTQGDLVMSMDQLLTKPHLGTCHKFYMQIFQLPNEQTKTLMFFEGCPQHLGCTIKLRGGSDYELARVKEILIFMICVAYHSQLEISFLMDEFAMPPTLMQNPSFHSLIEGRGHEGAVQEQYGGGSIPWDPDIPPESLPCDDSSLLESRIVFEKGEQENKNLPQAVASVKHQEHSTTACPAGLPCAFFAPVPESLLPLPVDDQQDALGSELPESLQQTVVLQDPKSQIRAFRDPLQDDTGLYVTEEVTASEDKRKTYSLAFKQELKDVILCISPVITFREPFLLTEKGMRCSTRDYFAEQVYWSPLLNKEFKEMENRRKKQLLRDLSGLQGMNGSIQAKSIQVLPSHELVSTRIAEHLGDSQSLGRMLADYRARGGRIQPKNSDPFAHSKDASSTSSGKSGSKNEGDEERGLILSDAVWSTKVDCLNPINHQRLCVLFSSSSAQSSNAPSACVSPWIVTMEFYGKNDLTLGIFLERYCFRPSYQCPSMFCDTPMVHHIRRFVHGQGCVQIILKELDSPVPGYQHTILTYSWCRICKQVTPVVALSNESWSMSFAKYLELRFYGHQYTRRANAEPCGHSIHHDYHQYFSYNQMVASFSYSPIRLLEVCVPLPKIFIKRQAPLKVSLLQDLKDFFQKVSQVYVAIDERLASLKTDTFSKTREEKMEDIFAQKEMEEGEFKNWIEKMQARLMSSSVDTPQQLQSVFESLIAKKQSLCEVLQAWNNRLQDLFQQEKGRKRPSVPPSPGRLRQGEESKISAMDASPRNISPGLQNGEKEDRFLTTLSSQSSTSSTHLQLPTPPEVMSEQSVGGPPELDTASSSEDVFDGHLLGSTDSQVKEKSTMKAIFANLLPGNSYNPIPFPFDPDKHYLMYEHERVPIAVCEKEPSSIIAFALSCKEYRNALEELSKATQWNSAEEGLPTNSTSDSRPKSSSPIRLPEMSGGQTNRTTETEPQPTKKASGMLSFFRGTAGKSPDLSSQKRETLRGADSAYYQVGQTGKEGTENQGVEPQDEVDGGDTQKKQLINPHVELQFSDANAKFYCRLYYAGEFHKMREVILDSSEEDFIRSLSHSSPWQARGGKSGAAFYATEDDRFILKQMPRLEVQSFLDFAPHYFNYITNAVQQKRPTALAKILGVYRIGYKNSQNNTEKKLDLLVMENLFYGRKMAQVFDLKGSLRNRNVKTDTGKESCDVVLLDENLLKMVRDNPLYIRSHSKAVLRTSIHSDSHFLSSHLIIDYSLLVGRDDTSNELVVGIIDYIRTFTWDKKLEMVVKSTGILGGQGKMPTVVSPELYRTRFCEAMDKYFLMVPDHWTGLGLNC

OCCn1cc(-c2cccc(-n3cccn3)c2)c2nc(N3CCOCC3)nc(-c3ccncc3)c21 [Compound 149, 2-(7-(3-(1H-pyrazol-1-yl)phenyl)-2-morpholino-4-(pyridin-4-yl)-6H-pyrrolo[3,2-d]pyrimidin-5-yl)ethan-1-ol]
IC50: 100 to 1000 nM

CC(C)(C)OC(=O)N1CCC(c2nc(N3CCOCC3)nc3c2CCN3c2ccccc2)CC1 [Compound 110, tert-butyl 4-(2-morpholino-7-phenyl-6,7-dihydro-5H-pyrrolo[2,3-d]pyrimidin-4-yl)piperidine-1-carboxylate]
IC50: 10 to 100 nM

c1ccc(N2CCc3c(COC4CCOCC4)nc(N4CCOCC4)nc32)cc1 [Compound 61, 4-(7-phenyl-4-(((tetrahydro-2H-pyran-4-yl)oxy)methyl)-6,7-dihydro-5H-pyrrolo[2,3-d]pyrimidin-2-yl)morpholine]
IC50: 100 to 1000 nM

c1ccc(Oc2nc(N3CCOCC3)nc3c2CCN3c2cccnc2)nc1 [Compound 51, 4-(4-(pyridin-2-yloxy)-7-(pyridin-3-yl)-6,7-dihydro-5H-pyrrolo[2,3-d]pyrimidin-2-yl)morpholine]
IC50: 100 to 1000 nM

Fc1cccc(N2CCc3c(OCc4cccnn4)nc(N4CCOCC4)nc32)c1 [Compound 8, 4-(7-(3-fluorophenyl)-4-(pyridazin-3-ylmethoxy)-6,7-dihydro-5H-pyrrolo[2,3-d]pyrimidin-2-yl)morpholine]
IC50: 100 to 1000 nM

4-(6-methyl-7-(pyridin-4-yl)-4-(tetrahydrofuran-3-yl)-6,7-dihydro-5H-pyrrolo[2,3-d]pyrimidin-2-yl)morpholine [Compound 98]
IC50: 10 to 100 nM

Fc1cccc(N2CCc3c(Oc4cccnc4)nc(N4CCOCC4)nc32)c1 [Compound 56, 4-(7-(3-fluorophenyl)-4-(pyridin-3-yloxy)-6,7-dihydro-5H-pyrrolo[2,3-d]pyrimidin-2-yl)morpholine]
IC50: 10 to 100 nM

Fc1cccc(N2CCc3c(C4CCOC4)nc(N4CCOCC4)nc32)c1 (centres unmarked) [Compound 94, 4-(7-(3-fluorophenyl)-4-(tetrahydro-furan-3-yl)-6,7-dihydro-5H-pyrrolo[2,3-d]pyrimidin-2-yl)morpholine]
IC50: 100 to 1000 nM

c1ccc(N2CCc3c(OC4CCOC4)nc(N4CCOCC4)nc32)cc1 (centres unmarked) [Compound 22, 4-(7-phenyl-4-((tetrahydrofuran-3-yl)oxy)-6,7-dihydro-5H-pyrrolo[2,3-d]pyrimidin-2-yl)morpholine]
IC50: 100 to 1000 nM

c1ccc(-c2cncc(Oc3nc(N4CCOCC4)nc4c3CCN4c3cccnc3)c2)cc1 [Compound 75, 4-(4-((5-phenylpyridin-3-yl)oxy)-7-(pyridin-3-yl)-6,7-dihydro-5H-pyrrolo[2,3-d]pyrimidin-2-yl)morpholine]
IC50: 10 to 100 nM

c1ccc(N2CCc3c(OCC4COC4)nc(N4CCOCC4)nc32)cc1 [Compound 20, 4-(4-(oxetan-3-ylmethoxy)-7-phenyl-6,7-dihydro-5H-pyrrolo[2,3-d]pyrimidin-2-yl)morpholine]
IC50: 10 to 100 nM

O=c1ccccn1-c1nc(N2CCOCC2)nc2c1CCN2c1cccnc1 [Compound 52, 1-(2-morpholino-7-(pyridin-3-yl)-6,7-dihydro-5H-pyrrolo[2,3-d]pyrimidin-4-yl)pyridin-2(1H)-one]
IC50: 1000 to 10000 nM

c1ccc(-n2cc(N3CCc4c(Oc5cccnc5)nc(N5CCOCC5)nc43)nn2)cc1 [Compound 69, 4-(7-(1-phenyl-1H-1,2,3-triazol-4-yl)-4-(pyridin-3-yloxy)-6,7-dihydro-5H-pyrrolo[2,3-d]pyrimidin-2-yl)morpholine]
IC50: 10 to 100 nM

Fc1cccc(N2CCc3c(-c4ccoc4)nc(N4CCOCC4)nc32)c1 [Compound 93, 4-(7-(3-fluorophenyl)-4-(furan-3-yl)-6,7-dihydro-5H-pyrrolo[2,3-d]pyrimidin-2-yl)morpholine]
IC50: 10 to 100 nM

Cc1cccc(-c2ccn(-c3nc(N4CCOCC4)nc4c3CCN4c3cccnc3)n2)c1 [Compound 83, 4-(7-(pyridin-3-yl)-4-(3-(m-tolyl)-1H-pyrazol-1-yl)-6,7-dihydro-6H-pyrrolo[2,3-d]pyrimidin-2-yl)morpholine]
IC50: 10 to 100 nM

c1ccc(N2CCc3c(OCc4cnccn4)nc(N4CCOCC4)nc32)cc1 [Compound 15, 4-(7-phenyl-4-(pyrazin-2-ylmethoxy)-6,7-dihydro-5H-pyrrolo[2,3-d]pyrimidin-2-yl)morpholine]
IC50: 10 to 100 nM

c1ccc(N2CCc3c(OCc4cncnc4)nc(N4CCOCC4)nc32)cc1 [Compound 14, 4-(7-phenyl-4-(pyrimidin-5-ylmethoxy)-6,7-dihydro-5H-pyrrolo[2,3-d]pyrimidin-2-yl)morpholine]
IC50: 10 to 100 nM

c1ccc(N2CCc3c(-c4cccnc4)nc(N4CCOCC4)nc32)cc1 [Compound 91, 4-(7-phenyl-4-(pyridin-3-yl)-6,7-dihydro-5H-pyrrolo[2,3-d]pyrimidin-2-yl)morpholine]
IC50: 10 to 100 nM

c1cncc(-c2nc(N3CCOCC3)nc3c2CCN3c2ccc3c(c2)OCO3)c1 [Compound 102, 4-(7-(benzo[d][1,3]dioxol-5-yl)-4-(pyridin-3-yl)-6,7-dihydro-5H-pyrrolo[2,3-d]pyrimidin-2-yl)morpholine]
IC50: 10 to 100 nM

c1ccc(N2CCc3c(N4CCOCC4)nc(N4CCOCC4)nc32)cc1 [Compound 78, 4,4′-(7-phenyl-6,7-dihydro-5H-pyrrolo[2,3-d]pyrimidine-2,4-diyl)dimorpholine]
IC50: 10 to 100 nM

CN1CCCC(c2nc(N3CCOCC3)nc3c2ncn3-c2cccnc2)C1 (centres unmarked) [Compound 127, 4-(6-(1-methylpiperidin-3-yl)-9-(pyridin-3-yl)-9H-purin-2-yl)morpholine]
IC50: > 10000 nM

Cc1nc(N2CCOCC2)nc2c1CCN2c1ccccc1 [Compound 45, 4-(4-methyl-7-phenyl-6,7-dihydro-5H-pyrrolo[2,3-d]pyrimidin-2-yl)morpholine]
IC50: 100 to 1000 nM

CC(C)(C)OC(=O)N1CC(COc2nc(N3CCOCC3)nc3c2CCN3c2cccnc2)C1 [Compound 37, tert-butyl 3-(((2-morpholino-7-(pyridin-3-yl)-6,7-dihydro-5H-pyrrolo[2,3-d]pyrimidin-4-yl)oxy)methyl)azetidine-1-carboxylate]
IC50: 100 to 1000 nM

CN1CCCC(COc2nc(N3CCOCC3)nc3c2CCN3c2cncnc2)C1 (centres unmarked) [Compound 16, 4-(4-((1-methylpiperidin-3-yl)methoxy)-7-(pyrimidin-5-yl)-6,7-dihydro-5H-pyrrolo[2,3-d]pyrimidin-2-yl)morpholine]
IC50: 1000 to 10000 nM

c1ccc(N2CCc3c(OCCC4CCCO4)nc(N4CCOCC4)nc32)cc1 (centres unmarked) [Compound 30, 4-(7-phenyl-4-(2-(tetrahydrofuran-2-yl)ethoxy)-6,7-dihydro-5H-pyrrolo[2,3-d]pyrimidin-2-yl)morpholine]
IC50: 100 to 1000 nM

c1cncc(N2CCc3c(OCC4CCNC4)nc(N4CCOCC4)nc32)c1 (centres unmarked) [Compound 34, 4-(7-(pyridin-3-yl)-4-(pyrrolidin-3-ylmethoxy)-6,7-dihydro-5H-pyrrolo[2,3-d]pyrimidin-2-yl)morpholine]
IC50: 100 to 1000 nM

c1ccc(N2CCc3c(C4CCOCC4)nc(N4CCOCC4)nc32)cc1 [Compound 86, 4-(7-phenyl-4-(tetrahydro-2H-pyran-4-yl)-6,7-dihydro-5H-pyrrolo[2,3-d]pyrimidin-2-yl)morpholine]
IC50: 100 to 1000 nM

Cc1cccc(CN2CCc3c(Cl)nc(N4CCOCC4)nc32)c1 [Compound 41, 4-(4-chloro-7-(3-methylbenzyl)-6,7-dihydro-5H-pyrrolo[2,3-d]pyrimidin-2-yl)morpholine]
IC50: > 10000 nM

c1ccc(N2CCc3c(OCCc4ccccn4)nc(N4CCOCC4)nc32)cc1 [Compound 44, 4-(7-phenyl-4-(2-(pyridin-2-yl)ethoxy)-6,7-dihydro-5H-pyrrolo[2,3-d]pyrimidin-2-yl)morpholine]
IC50: 10 to 100 nM

CN1CCN(c2nc(N3CCOCC3)nc3c2CCN3c2cccnc2)CC1 [Compound 81, 4-(4-(4-methylpiperazin-1-yl)-7-(pyridin-3-yl)-6,7-dihydro-5H-pyrrolo[2,3-d]pyrimidin-2-yl)morpholine]
IC50: 1000 to 10000 nM

c1cncc(N2CCc3c(N4Cc5ccccc5C4)nc(N4CCOCC4)nc32)c1 [Compound 80, 4-(4-(isoindolin-2-yl)-7-(pyridin-3-yl)-6,7-dihydro-5H-pyrrolo[2,3-d]pyrimidin-2-yl)morpholine]
IC50: 10 to 100 nM

c1ccc(N2CCc3c(-c4cnco4)nc(N4CCOCC4)nc32)cc1 [Compound 101, 4-(4-(oxazol-5-yl)-7-phenyl-6,7-dihydro-5H-pyrrolo[2,3-d]pyrimidin-2-yl)morpholine]
IC50: 10 to 100 nM
